Laboratory results published in patent publication US20160060260A1, “BROMODOMAIN INHIBITORS FOR TREATING DISEASE” (Board of Regents, The University of Texas System, priority 2014, published 2016).

What follows are compounds tested against T1, Recombinant human His-tagged Trim24-PHD-bromodomain (Homo sapiens, UniProt O15164) (assay: Trim24 AlphaScreen Assay). Details: 5 nM Trim24 protein, 15 nM biotinylated H3K23ac (1-33aa) peptide.
T1 construct: Recombinant human His-tagged Trim24-PHD-bromodomain (produced in-house); made in house
T1 sequence (O15164 824-1006 limits assumed): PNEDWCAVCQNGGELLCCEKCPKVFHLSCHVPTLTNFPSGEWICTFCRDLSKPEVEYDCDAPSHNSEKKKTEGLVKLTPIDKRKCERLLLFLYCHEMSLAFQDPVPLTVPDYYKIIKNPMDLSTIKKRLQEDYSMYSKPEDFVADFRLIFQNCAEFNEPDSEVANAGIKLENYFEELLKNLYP
Format: binding
Procedure, shortened: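 His-tagged Trim24-PHD-bromodomain, biotinylated H3K23ac (1-33aa) peptide and compound incubated 1 h at room temperature in 50 mM Hepes pH 7.5, 100 mM NaCl, 0.12 mM Triton X-100.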
In the case of Cc1n[nH]c(C)c1S(=O)(=O)Nc1cc2c(cc1Oc1cccc(OCc3ccccc3)c1)n(C)c(=O)n2C [Example 2, N-(6-(3-(benzyloxy)phenoxy)-1,3-dimethyl-2-oxo-2,3-dihydro-1H-benzo[d]imidazol-5-yl)-3,5-dimethyl-1H-pyrazole-4-sulfonamide], the IC50 is reported as 100 to 1000 nM.
CC(C)COc1cccc(Oc2cc3c(cc2NS(=O)(=O)c2cnn(C)c2)n(C)c(=O)n3C)c1 [Example 60, N-(6-(3-isobutoxyphenoxy)-1,3-dimethyl-2-oxo-2,3-dihydro-1H-benzo[d]imidazol-5-yl)-1-methyl-1H-pyrazole-4-sulfonamide] showed an IC50 of 10 to 100 nM.
With Cn1cnc(S(=O)(=O)Nc2cc3c(cc2Oc2cccc(OCCCCCCN)c2)n(C)c(=O)n3C)c1 [Example 146, N-(6-(3-((6-aminohexyl)oxy)phenoxy)-1,3-dimethyl-2-oxo-2,3-dimethyl-2-oxo-2,3-dihydro-1H-benzo[d]imidazol-5-yl)-1-methyl-1H-imidazole-4-sulfonamide] the IC50 was 100 to 1000 nM.
CCCOc1cccc(Oc2cc3c(cc2NS(=O)(=O)c2c(C)n[nH]c2C)n(C)c(=O)n3C)c1 [Example 92, N-(1,3-dimethyl-2-oxo-6-(3-propoxyphenoxy)-2,3-dihydro-1H-benzo[d]imidazol-5-yl)-3,5-dimethyl-1H-pyrazole-4-sulfonamide] gave an IC50 of 10 to 100 nM.
Compound COc1ccc(S(=O)(=O)Nc2cc3c(cc2Oc2cccc(OCc4ccccc4)c2)n(C)c(=O)n3C)cc1 [Example 17, N-(6-(3-(benzyloxy)phenoxy)-1,3-dimethyl-2-oxo-2,3-dihydro-1H-benzo[d]imidazol-5-yl)-4-methoxybenzenesulfonamide] has an IC50 of 100 to 1000 nM.
In the case of CCCOc1cc(OCCCCN)cc(Oc2cc3c(cc2NS(=O)(=O)c2cnn(C)c2C)n(C)c(=O)n3C)c1 [Example 199, N-(6-(3-(4-aminobutoxy)-5-propoxyphenoxy)-1,3-dimethyl-2-oxo-2,3-dihydro-1H-benzo[d]imidazol-5-yl)-1,5-dimethyl-1H-pyrazole-4-sulfonamide], the IC50 is reported as 10 to 100 nM.
Cn1cnc(S(=O)(=O)Nc2cc3c(cc2Oc2cccc(OCC(C)(O)CO)c2)n(C)c(=O)n3C)c1 (stereo not drawn) [Example 231, N-{6-[3-(2,3-dihydroxy-2-methylpropoxy)phenoxy]-1,3-dimethyl-2-oxo-2,3-dihydro-1H-1,3-benzodiazol-5-yl}-1-methyl-1H-imidazole-4-sulfonamide] showed an IC50 of 100 to 1000 nM.
CCCOc1cc(OCCCOC)cc(Oc2cc3c(cc2NS(=O)(=O)c2ccc(OCC)c(C)c2)n(C)c(=O)n3C)c1 [Example 161, 4-ehoxy-N-(6-(3-(3-methoxypropoxy)-5-propoxyphenoxy)-1,3-dimethyl-2-oxo-2,3-dihydro-benzo[d]imidazol-5-yl)-3-methylbenzenesulfonamide] was tested, and the IC50 was 100 to 1000 nM.
Cc1nc(S(=O)(=O)Nc2cc3c(cc2Oc2cccc(OCCC(C)C)c2)n(C)c(=O)n3C)cn1C [Example 4, N-(6-(3-(isopentyloxy)phenoxy)-1,3-dimethyl-2-oxo-2,3-dihydro-1H-benzo[d]imidazol-5-yl)-1,2-dimethyl-1H-imidazole-4-sulfonamide] was tested, and the IC50 was 100 to 1000 nM.
COCCCOc1cc(C#N)cc(Oc2cc3c(cc2NS(=O)(=O)c2cn(C)c(C)n2)n(C)c(=O)n3C)c1 [Example 120, N-(6-(3-cyano-5-(3-methoxypropoxy)phenoxy)-1,3-dimethyl-2-oxo-2,3-dihydro-1H-benzo[d]imidazol-5-yl)-1,2-dimethyl-1H-imidazole-4-sulfonamide] showed an IC50 of 100 to 1000 nM.
For CCCOc1cc(OCCCC#N)cc(Oc2cc3c(cc2NS(=O)(=O)c2cn(C)c(C)n2)n(C)c(=O)n3C)c1 [Example 124, N-(6-(3-(3-cyanopropoxy)-5-propoxyphenoxy)-1,3-dimethyl-2-oxo-2,3-dihydro-1H-benzo[d]imidazol-5-yl)-1,2-dimethyl-1H-imidazole-4-sulfonamide], the IC50 was 10 to 100 nM.
COCCOc1cccc(Oc2cc3c(cc2NS(=O)(=O)c2cn(C)c(C)n2)n(C)c(=O)n3C)c1 [Example 53, N-(6-(3-(2-methoxyethoxy)phenoxy)-1,3-dimethyl-2-oxo-2,3-dihydro-1H-benzo[d]imidazol-5-yl)-1,2-dimethyl-1H-imidazole-4-sulfonamide] showed an IC50 of 100 to 1000 nM.
